From PMC6470523, “Introduction of Nonacidic Side Chains on 6-Ethylcholane Scaffolds in the Identification of Potent Bile Acid Receptor Agonists with Improved Pharmacokinetic Properties” (Molecules, 2019)
Values after ≈ are worked out from the molar mass of the structure shown.

Columns and labels:
[1] = target: T1, human FXR (Homo sapiens, UniProt Q96RI1); experiment: FXR transactivation luciferase reporter assay in HepG2 cells; assay type: cell-based; conditions: for EC50: dose response 0.5 to 50 µM, 18 h; for EC50 / FXR Eff (%) vs 6-ECDCA / FXR Eff (%) vs CDCA: HepG2 cells; for FXR Eff (%) vs 6-ECDCA: maximum efficacy of compound (10 µM) relative to 6-ECDCA (1 µM) set as 100%; for FXR Eff (%) vs 6-ECDCA / FXR Eff (%) vs CDCA: FRE transactivation; for FXR Eff (%) vs CDCA: maximum efficacy of compound (10 µM) relative to CDCA (10 μM) set as 100%; for FXR activity (in words): transactivation assay
T1 construct: expressed in transfected cells; host or cells: HepG2
T1 sequence (Q96RI1 1-486): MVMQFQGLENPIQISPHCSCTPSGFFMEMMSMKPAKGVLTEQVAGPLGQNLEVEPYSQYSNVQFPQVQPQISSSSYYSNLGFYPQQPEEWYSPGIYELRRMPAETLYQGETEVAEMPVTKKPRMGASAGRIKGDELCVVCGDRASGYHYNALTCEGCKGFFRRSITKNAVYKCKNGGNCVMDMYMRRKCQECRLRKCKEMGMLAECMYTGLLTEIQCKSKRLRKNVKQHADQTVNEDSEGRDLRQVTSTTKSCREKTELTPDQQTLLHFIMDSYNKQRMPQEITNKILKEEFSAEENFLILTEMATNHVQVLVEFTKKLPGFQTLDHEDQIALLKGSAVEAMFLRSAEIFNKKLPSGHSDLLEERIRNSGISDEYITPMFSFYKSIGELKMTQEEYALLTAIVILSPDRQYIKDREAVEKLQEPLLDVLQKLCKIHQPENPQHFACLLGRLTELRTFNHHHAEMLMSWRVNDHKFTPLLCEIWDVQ
T1 sequence (P19793 1-462 partner): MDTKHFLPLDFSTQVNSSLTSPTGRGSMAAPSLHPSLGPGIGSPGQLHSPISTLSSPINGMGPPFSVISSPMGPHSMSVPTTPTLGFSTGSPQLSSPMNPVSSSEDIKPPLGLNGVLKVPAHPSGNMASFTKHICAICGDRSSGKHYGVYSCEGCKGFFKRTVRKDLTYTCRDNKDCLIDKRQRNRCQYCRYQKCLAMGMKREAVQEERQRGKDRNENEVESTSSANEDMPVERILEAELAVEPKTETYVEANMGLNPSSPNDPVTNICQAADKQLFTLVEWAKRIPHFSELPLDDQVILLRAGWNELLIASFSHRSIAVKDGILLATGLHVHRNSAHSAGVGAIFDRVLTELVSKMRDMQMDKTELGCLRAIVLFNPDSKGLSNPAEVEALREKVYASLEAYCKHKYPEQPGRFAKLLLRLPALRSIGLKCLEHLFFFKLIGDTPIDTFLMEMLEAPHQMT
Procedure: (§1) To evaluate FXR mediated transactivation, HepG2 cells were transfected with 100 ng of human pSG5-FXR, 100 ng of human pSG5-RXR, 200 ng of the reporter vector p(hsp27)-TK-LUC containing the FXR response element IR1 cloned from the promoter of heat shock protein 27 (hsp27) and with 100 ng of pGL4.70 (Promega), a vector encoding the human Renilla gene. To evaluate GPBAR1 mediated transactivation, HEK293T cells were transfected with 200 ng of human pGL4.29 (Promega), a reporter vector containing a cAMP response element (CRE) that drives the transcription of the luciferase reporter gene luc2P, with 100 ng of pCMVSPORT6-human GPBAR1, and with 100 ng of pGL4.70. […] After treatments, 10 μL of cellular lysates were read using a Dual-Luciferase Reporter Assay System (Promega Italia srl, Milan, Italy) according manufacturer specifications using the Glomax20/20 luminometer (Promega Italia srl, Milan, Italy). Luciferase activities were assayed and normalized with Renilla activities.
(§2) At 18 h post stimulations, cellular lysates were assayed for luciferase and Renilla activities using the Dual-Luciferase Reporter Assay System (E1980, Promega Italia srl, Milan, Italy). Luminescence was measured using Glomax 20/20 luminometer (Promega Iralia srl, Milan, Italy). Luciferase activities were normalized with Renilla activities.

[2] = target: T2, human GPBAR1 (Homo sapiens, UniProt Q8TDU6); experiment: GPBAR1 transactivation (CRE luciferase reporter) assay in HEK293T cells; assay type: cell-based; conditions: for GPBAR1 Eff (%) vs 6-ECDCA: maximum efficacy of compound (10 µM) relative to 6-ECDCA (1 µM) set as 100, CRE transactivation; for GPBAR1 Eff (%) vs TLCA: maximum efficacy of compound (10 µM) relative to TLCA (10 μM) set as 100, CRE transactivation; for EC50: dose response 0.5 to 50 µM, 18 h
T2 construct: expressed in transfected cells; host or cells: HEK293T
T2 sequence (Q8TDU6 1-330): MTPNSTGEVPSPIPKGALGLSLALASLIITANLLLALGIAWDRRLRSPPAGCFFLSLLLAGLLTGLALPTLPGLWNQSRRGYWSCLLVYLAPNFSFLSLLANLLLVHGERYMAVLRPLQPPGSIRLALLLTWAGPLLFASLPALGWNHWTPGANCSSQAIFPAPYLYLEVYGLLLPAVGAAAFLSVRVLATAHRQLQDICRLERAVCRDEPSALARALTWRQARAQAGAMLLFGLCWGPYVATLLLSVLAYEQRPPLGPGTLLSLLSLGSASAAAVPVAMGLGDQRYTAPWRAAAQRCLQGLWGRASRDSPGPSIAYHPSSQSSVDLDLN
Procedure: as §1, §2

[3] = test system: pro-glucagon mRNA in GLUTag cells; experiment: RT-PCR of GPBAR1 target gene pro-glucagon mRNA in GLUTag cells; assay type: cell-based, murine; conditions: 1 and 10 µM, 18 h, Figure 2A
Procedure: (§3) HepG2 and GLUTag cells were plated at 1 × 10^6 cells/well in a six well plate. […] Total RNA was isolated from cells using the TRIzol reagent according to the manufacturer's specifications (Invitrogen, Carlsbad, CA, USA). One microgram of purified RNA was treated with DNase-I and reverse transcribed with Superscript II (Invitrogen, Carlsbad, CA, USA). For Real Time PCR, 10 ng template was dissolved in 25 μL containing 200 nmol/L of each primer and 12.5 μL of 2× SYBR FAST Universal ready mix (Invitrogen, Carlsbad, CA, USA). All reactions were performed in triplicate, and the thermal cycling conditions were as follows: 2 min at 95 °C, followed by 40 cycles of 95 °C for 20 s and 60 °C for 30 s in StepOnePlus (Applied Biosystems, Foster City, CA, USA). The relative mRNA expression was calculated accordingly to the Ct method. Primers were designed using the software PRIMER31 using published data obtained from the NCBI database. Forward and reverse primer sequences were the following: human GAPDH, [NT]; human SHP, [NT]; mouse GAPDH, [NT]; mouse pro-glucagon, [NT]

[4] = test system: SHP mRNA in HepG2 cells; experiment: RT-PCR of FXR target gene SHP mRNA in HepG2 cells; assay type: cell-based, human; conditions: 1 and 10 µM, 18 h, vs CDCA 10 µM, Figure 2B
Procedure: as §3

[5] = Aqueous solubility measurement (PBS pH 7.4, LC-MS); assay type: physicochemical; conditions: aqueous buffer, kinetic from dmso stock; aqueous solubility at pH 7.4 (PBS), 24 h room temperature
Procedure: (§4) Chromatography was performed using an Alliance pump system coupled to a Q-ToF Premiere (Waters Co., Milford, MA, USA). The mixture was separated on a Luna 5 µm C8(2) 100° A 150 × 2 mm from Phenomenex. The mobile phase consisted of 0.2% formic acid (FA) in water as solvent A and 0.2% FA in acetonitrile as solvent B at a flow rate of 200 μL/min. The gradient was as follows: 0–2 min (70% A and 30% B), 2–20 min (5% A and 95% B), 20–30 min (70% A and 30% B). The detection of analytes was achieved by electrospray ionization (ESI) in the positive mode with the appropriate MS/MS transitions, if necessary.
Ten microliters of a 10 mM solution in DMSO of each compound was diluted either in 490 μL of PBS pH 7.4 or in organic solvent MeOH (in triplicate). The tubes were gently shaken 24 h at room temperature, then centrifuged for 5 min at 4000 rpm. 10 microliters of sample were diluted in 490 μL of MeOH. The solubility is determined by the ratio of mass signal area PBS/organic solvent.

[6] = Liver microsomal stability; assay type: in vitro ADME, mouse; conditions: liver microsomes; for microsomal CLint at 1 µM / half-life at 1 µM: male, CD-1, mouse, pH 7.4, 1 μM compound, 37 °C; for half-life at 1 µM: read-out: t½
Procedure: as §4
Male mouse (CD-1) liver microsomes (Sigma-Aldrich, St. Louis, MO, USA) were used. All incubations were performed in duplicate in a shaking water bath at 37 °C. The incubation mixtures contained 1 μM compound with 1% DMSO used as a vehicle, mouse liver microsomes (0.3 mg of microsomal protein per mL), 5 mM MgCl2, 1 mM NADP, 5 mM glucose 6-phosphate, 0.4 U·mL^−1 glucose 6-phosphate dehydrogenase, and 50 mM potassium phosphate buffer (pH 7.4) in a final volume of 0.5 mL. Aliquots were removed at 0, 5, 10, 20, 30, and 40 min after microsome addition and the reaction was stopped by adding 200 μL of ice-cold acetonitrile. After two hours, the samples were centrifuged for 10 min at 10,000 rpm, and the supernatants were transferred in matrix tubes for LC-MS/MS analysis. LC-MS/MS analysis were carried out setting the m/z window around the value of the MH^+ of the unmodified compounds.
Propranolol, known as a high hepatic clearance drug in rodents, was used as a quality-control compound for the microsomal incubations. The slope of the linear regression of the curve obtained reporting the natural logarithm of compound area versus incubation time (−k) was used in the conversion to in vitro t1/2 values by t1/2 = −ln(2)/k. In vitro intrinsic clearance (Clint expressed as μL/min/mg) was calculated according to the following formula: Clint = volume of reaction (µL)/t1/2(min)/protein of liver microsomes (mg). The percentage of unmodified compound has been calculated assuming the area of the compound peak at time 0 min as 100%.

Compound	EC50 [1]	FXR Eff (%) vs 6-ECDCA [1]	FXR Eff (%) vs CDCA [1]	GPBAR1 Eff (%) vs 6-ECDCA [2]	GPBAR1 Eff (%) vs TLCA [2]	pro-glucagon mRNA expression (in words) [3]	SHP mRNA expression (in words) [4]	solubility at 24 h [5]	Percentage of compound remaining in solution after 40 min incubation [6]	microsomal CLint at 1 µM [6]	half-life at 1 µM [6]	EC50 [2]	FXR activity (in words) [1]
CCC1C(O)C2C3CCC(C(C)CO)C3(C)CCC2C2(C)CCCCC12 (stereo not drawn) [compound 6, 6α-Ethyl-7α-hydroxy-23,24-dinor-5β-cholan-22-ol]	13700 ± 2050 nM	33.4%	185%	87.5%	19%	failed to regulate	more potent than CDCA	162 µM (≈ 58.7 µg/mL)	79.2%	19.7 µL/min/mg	1.96 h	–	–
CCC1C(O)C2C3CCC(C(C)CO)C3(C)CCC2C2(C)CCC(O)CC12 (stereo not drawn) [compound 3, 6α-Ethyl-3α, 7α -dihydroxy-23,24-dinor-5β-cholan-22-ol]	2800 ± 450 nM	45%	257%	243.4%	55%	–	–	210 µM (≈ 79.5 µg/mL)	60.6%	36.6 µL/min/mg	1.05 h	430 ± 15 nM	–
C=CC(C)C1CCC2C3C(O)C(CC)C4CC(O)CCC4(C)C3CCC12C (stereo not drawn) [compound 1, 6α-Ethyl-3α, 7α-dihydroxy-24-nor-5β-chol-23-ene]	1800 ± 500 nM	45.6%	252%	367.1%	79%	–	–	201 µM (≈ 75.3 µg/mL)	42.2%	52.6 µL/min/mg	0.73 h	140 ± 32 nM	–
C=CC(C)C1CCC2C3C(O)C(CC)C4CCCCC4(C)C3CCC12C (stereo not drawn) [compound 4, 6α-Ethyl-7α-hydroxy-24-nor-5β-chol-23-ene]	–	3.1%	17%	68.8%	15%	–	–	–	–	–	–	–	inactive
CC[C@H]1[C@@H](O)[C@@H]2[C@H](CC[C@]3(C)[C@@H]([C@H](C)CCC(=O)O)CC[C@@H]23)[C@@]2(C)CC[C@@H](O)C[C@@H]12 [6-ECDCA, 6-ethylchenodeoxycholic acid, reference compound]	–	–	–	–	–	–	–	195 µM (≈ 82 µg/mL)	26.9%	109 µL/min/mg	0.352 h	–	–
CCC(C)C1CCC2C3C(O)C(CC)C4CCCCC4(C)C3CCC12C (stereo not drawn) [compound 5, 6α-Ethyl-7α-hydroxy-23,24-dinor-5β-cholane]	–	2.5%	14%	53.4%	12%	–	–	–	–	–	–	–	inactive
CCC(C)C1CCC2C3C(O)C(CC)C4CC(O)CCC4(C)C3CCC12C (stereo not drawn) [compound 2, 6α-Ethyl-3α, 7α -dihydroxy-24-nor-5β-cholane]	1300 ± 120 nM	46.5%	249%	255.2%	53%	–	–	176 µM (≈ 66.3 µg/mL)	72.8%	25 µL/min/mg	1.54 h	1500 ± 290 nM	–
